The conditions of series [1]: background statement; cited from earlier work.
Series [2] deals with Nrf2. The experiment in a line: Western blot of Nrf2 in nuclear extract of BV2 cells. The conditions noted are these: 0 μM to 10 μM, 6 hours, relative to Lamin B1. In kind it is cell-based. On the procedure: Through Experimental Example 1, the activation of Nrf2 by the compounds of the present invention was indirectly confirmed. Thus, in order to directly confirm the effect of the compounds of the present invention on Nrf2 activation, Western blot was performed. […] Specifically, BV2 cells were loaded in a 25T flask at a density of 2×10^6 cells/flask in an amount of 4 mL and incubated in RPM1640 medium for 24 hours. […] The thus-incubated cells were recovered, and the nucleus and cytoplasmic extracts were separated. The thus-separated nuclear extract was electrophoresed by 10% SDS-PAGE, transferred to a PVDF membrane, and blocked with bovine serum albumin (BSA). Thereafter, the amount of Nrf2 protein in the nucleus was measured using an anti-Nrf2 antibody, and the results are shown in FIG. 1. The amount of Nrf2 was measured relative to Lamin B1, which refers to the same amount of nuclear extract.
(In general: A western blot detects proteins with antibodies after separation by electrophoresis.)

Series [3] has as its system MPTP-induced Parkinson's disease model. Description: Vertical grid test in MPTP-induced Parkinson's disease mice. The conditions noted are these: orally 20 mg/mL once a day for 3 days from the day before MPTP; test 6 days after MPTP. The series is classed as in vivo, C57/BL6 mice. As for the experimental part: (§1) A specifically designed animal experiment schedule is shown at the top of FIG. 3. […] The MPTP-induced Parkinson's disease model was prepared by injecting 20 mg/kg of MPTP intraperitoneally at 2-hour intervals a total of 4 times in a day. In the negative control group, physiological saline solution containing no MPTP was injected at the same time. In order to confirm whether or not Parkinson's disease was induced, motor impairment caused by dopaminergic neuronal cell death, known as the main symptom of Parkinson's disease, was confirmed by a vertical grid test and a coat-hanger test.
The vertical grid test evaluates the time to climb down when an experimental animal model is placed on a vertical ladder. In the present invention, the time to turn towards the floor and the total time taken to climb down from the ladder were measured once the mice were placed on a ladder.

The next series in a line: Solubility in water. The series is classed as physicochemical. The source says: In the development of new drugs, the solubility of drugs is one of the very important factors associated with the bio-absorption rate. […] In addition, drugs with low solubility may crystallize in tissues or cause serious toxicity, and thus, the FDA requires additional research results on oral drugs with low solubility. Furthermore, low solubility may also be the biggest cause of failure in the development of candidate materials.

The next series has as its system dopaminergic neurons. Description: Tyrosine hydroxylase immunohistochemical staining of corpus striatum and substantia nigra, MPTP mice. As to conditions: Compound 15 orally. In kind it is in vivo, C57/BL6 mice. The text has this: From the results of Experimental Example 8, the effect of restoring exercise ability by the compound of the present invention was confirmed. In order to confirm whether the recovery of such exercise ability was due to the neuroprotective effect of the compounds of the present invention, brains were excised from mice and analyzed by immunohistochemical staining using tyrosine hydroxylase used as a marker for dopaminergic neurons. As a site for analysis, the corpus striatum and substantia nigra, which are concentrated with dopaminergic neurons, were selected. Specifically, after anesthetizing the mice in the negative control group, the positive control group, and the experimental group with avertin, physiological saline and 4% formaldehyde were injected into the heart, and the brain was excised, which was sequentially immersed in 4% formaldehyde and 30% sucrose, and stored in the refrigerator for one day each. Thereafter, the tissue fragments of the corpus striatum and substantia nigra were obtained from the stored brain using a cryosectioning machine. The brain tissue fragments were stained by DAB staining using a tyrosine hydroxylase antibody, which is specifically expressed in dopaminergic neurons, by immunohistochemical staining, and observed with a microscope, and the results are shown in FIG. 4.

Series [4] concerns MPTP-induced Parkinson's disease model. The experiment in a line: Coat-hanger test in MPTP-induced Parkinson's disease mice. The series is classed as in vivo, C57/BL6 mice. As to conditions: orally 20 mg/mL once a day for 3 days from the day before MPTP; time limit 3 minutes. As for the experimental part: as §1
The coat-hanger test, which is another behavioral experiment that evaluates exercise ability, was conducted as follows, as shown in the bottom left of FIG. 3: when the mice were placed in the middle of a hanger 30 cm away from the floor, the mice moved toward a safe position on the top of the hanger while being hanged, and a score was assigned according to the position at the time point with a time limit of 3 minutes. The specific experimental method and the result are shown at the bottom of FIG. 3. As shown in the graph at the bottom of FIG. 3, most of the negative control moved to the top of the hanger, corresponding to 5 points, but in the case of the positive control, 2 to 3 points were recorded because the mice mainly stopped at both ends of the bottom of the hanger.

For another series, the system named is GCLC, GCLM, and HO-1. The experiment in a line: Western blot of Nrf2-related antioxidant enzymes in BV2 cells. As to conditions: 0 μM to 10 μM, 24 hours, relative to actin. The series is classed as cell-based. The text has this: As a transcription factor, Nrf2 acts to protect cells by increasing antioxidant enzymes in the nucleus. Through preceding Experimental Examples 1 and 6, the activation of Nrf2 by the compound of the present invention was confirmed directly or indirectly. Thus, whether the activated Nrf2 increases antioxidant enzymes was confirmed by measuring the amount of antioxidant enzymes using Western blot. As antioxidant enzymes to be detected, GCLC, GCLM, and HO-1, expression of which is known to increase due to Nrf2, were selected. Specifically, BV2 cells were loaded at a density of 5×10^5 cells/well in a 6-well plate in an amount of 1.5 mL, and incubated in RPM1640 medium for 24 hours. […] The thus-incubated cells were recovered and lysed to extract the total protein, and then subjected to electrophoresis by 10% SDS-PAGE. The total extract subjected to electrophoresis was transferred to a PVDF membrane and then blocked with bovine serum albumin. Thereafter, the amount of antioxidant enzymes expressed in cells was measured using antibodies corresponding to each antioxidant enzyme, and the results are shown in FIG. 2.

Another series addresses T1, CYP 2C9 (Homo sapiens, UniProt P11712).
T1 construct: from tissue; host or cells: human liver microsomes
Description: Inhibition of CYP activity in human liver microsomes, 2C9. The series is classed as in vitro ADME. As to conditions: 10 μM compound, human liver microsomes 0.25 mg/mL, % activity relative to the negative control. As for the experimental part:
(§2) Thereafter, the reaction was terminated by adding an acetonitrile solution containing an internal standard substrate (terfenadine), followed by centrifugation (14,000 rpm, 4° C.) for 5 minutes. Subsequently, the supernatant was injected into the LC-MS/MS system, and the metabolites of the substrate drugs were simultaneously analyzed to evaluate the inhibitory ability of these compounds on drug metabolic enzymes. The metabolites of each CYP isoenzyme indicator drug generated through the above reaction were analyzed using the Shimadzu Nexera XR system and TSQ vantage (Thermo). A Kinetex C18 column was used as the HPLC column, and distilled water containing 0.1% formic acid and acetonitrile containing 0.1% formic acid were used as the mobile phase. The generated metabolites were quantified using the quantification mode of multiple reaction monitoring (MRM), and data were analyzed with Xcalibur (version 1.6.1).

For another series, the target named is T2, CYP 2C19 (Homo sapiens, UniProt P33261).
T2 construct: from tissue; host or cells: human liver microsomes
T2 sequence (P33261 whole entry): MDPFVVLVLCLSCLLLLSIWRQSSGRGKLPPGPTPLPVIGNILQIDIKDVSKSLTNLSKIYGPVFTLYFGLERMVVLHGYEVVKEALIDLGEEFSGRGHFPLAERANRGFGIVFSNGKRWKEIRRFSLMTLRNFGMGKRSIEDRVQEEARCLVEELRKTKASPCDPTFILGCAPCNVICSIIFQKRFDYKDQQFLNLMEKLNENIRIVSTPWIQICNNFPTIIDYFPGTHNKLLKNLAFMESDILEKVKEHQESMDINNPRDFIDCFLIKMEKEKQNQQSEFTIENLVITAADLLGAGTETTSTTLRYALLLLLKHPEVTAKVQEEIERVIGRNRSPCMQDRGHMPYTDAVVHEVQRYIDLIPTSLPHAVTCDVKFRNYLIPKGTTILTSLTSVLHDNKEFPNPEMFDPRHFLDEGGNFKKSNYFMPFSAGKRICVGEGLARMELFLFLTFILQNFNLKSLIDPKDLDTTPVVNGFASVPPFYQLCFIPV
The experiment in a line: Inhibition of CYP activity in human liver microsomes, 2C19. As to conditions: 10 μM compound, human liver microsomes 0.25 mg/mL; % activity relative to the negative control. The series is classed as in vitro ADME. On the procedure: as §2

The target in another series is hERG channel (Homo sapiens, UniProt Q12809). The experiment in a line: hERG channel-binding inhibition (fluorescent tracer polarization). As to conditions: hERG channel-containing membrane. The text has this: The human ether-a-go-go-related gene (hERG) ion channel is an important component of cardiac repolarization, and inhibitors of this channel can induce arrhythmia and sudden death. […] When a fluorescent hERG channel tracer binds to a membrane containing the hERG channel protein, the rotation of the tracer is restricted, thereby maintaining a high polarization state. However, when a competitive inhibitor binds to the hERG channel, the tracer is competitively pushed away from the membrane and depolarized as it loses its direction.
Sequence of hERG channel (Q12809 whole entry): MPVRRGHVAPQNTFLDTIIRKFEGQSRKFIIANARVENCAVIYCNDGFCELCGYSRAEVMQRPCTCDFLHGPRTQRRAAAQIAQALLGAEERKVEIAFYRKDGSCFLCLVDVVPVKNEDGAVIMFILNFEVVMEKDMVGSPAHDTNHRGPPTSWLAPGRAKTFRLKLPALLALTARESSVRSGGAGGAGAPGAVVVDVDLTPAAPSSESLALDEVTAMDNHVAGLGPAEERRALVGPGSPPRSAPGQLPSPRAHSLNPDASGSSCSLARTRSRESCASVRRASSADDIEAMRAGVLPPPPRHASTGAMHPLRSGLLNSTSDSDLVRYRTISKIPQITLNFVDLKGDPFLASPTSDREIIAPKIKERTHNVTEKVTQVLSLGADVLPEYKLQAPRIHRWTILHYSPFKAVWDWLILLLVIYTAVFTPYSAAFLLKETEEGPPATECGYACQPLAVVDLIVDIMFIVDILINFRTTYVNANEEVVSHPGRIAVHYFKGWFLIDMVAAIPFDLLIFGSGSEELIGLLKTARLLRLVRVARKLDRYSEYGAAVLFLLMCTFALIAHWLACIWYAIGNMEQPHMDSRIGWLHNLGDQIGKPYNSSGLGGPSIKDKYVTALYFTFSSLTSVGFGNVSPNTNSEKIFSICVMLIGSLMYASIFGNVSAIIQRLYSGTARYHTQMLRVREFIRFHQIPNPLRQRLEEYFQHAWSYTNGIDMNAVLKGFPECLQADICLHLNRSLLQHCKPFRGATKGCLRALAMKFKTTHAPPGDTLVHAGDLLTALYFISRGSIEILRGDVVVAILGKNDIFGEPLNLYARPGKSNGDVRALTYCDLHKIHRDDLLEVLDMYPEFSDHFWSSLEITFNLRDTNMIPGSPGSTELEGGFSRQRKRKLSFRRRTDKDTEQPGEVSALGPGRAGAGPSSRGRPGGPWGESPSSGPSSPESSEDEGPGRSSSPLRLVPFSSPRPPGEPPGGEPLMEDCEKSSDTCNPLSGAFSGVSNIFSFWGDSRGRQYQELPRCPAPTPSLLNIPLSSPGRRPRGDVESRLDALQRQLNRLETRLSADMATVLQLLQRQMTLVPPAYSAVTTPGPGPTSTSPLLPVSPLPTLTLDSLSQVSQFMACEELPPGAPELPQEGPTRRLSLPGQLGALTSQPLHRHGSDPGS

The target of another series is T3, CYP 2D6 (Homo sapiens, UniProt P10635).
T3 construct: from tissue; host or cells: human liver microsomes
T3 sequence (P10635 whole entry): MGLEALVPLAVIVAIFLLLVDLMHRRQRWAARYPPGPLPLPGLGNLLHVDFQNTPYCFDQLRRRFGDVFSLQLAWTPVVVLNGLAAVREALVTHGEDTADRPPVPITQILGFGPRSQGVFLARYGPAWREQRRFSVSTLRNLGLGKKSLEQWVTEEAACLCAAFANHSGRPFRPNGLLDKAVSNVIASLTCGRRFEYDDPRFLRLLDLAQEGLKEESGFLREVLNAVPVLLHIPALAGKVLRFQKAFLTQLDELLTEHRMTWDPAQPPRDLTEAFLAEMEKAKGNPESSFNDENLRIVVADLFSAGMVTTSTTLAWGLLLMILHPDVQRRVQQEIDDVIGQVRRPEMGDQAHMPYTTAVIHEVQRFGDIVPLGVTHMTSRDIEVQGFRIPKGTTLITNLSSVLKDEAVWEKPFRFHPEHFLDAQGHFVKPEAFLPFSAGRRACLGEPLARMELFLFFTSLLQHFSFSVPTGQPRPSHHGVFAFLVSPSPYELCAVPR
Description: Inhibition of CYP activity in human liver microsomes, 2D6. The series is classed as in vitro ADME. The conditions noted are these: 10 μM compound, human liver microsomes 0.25 mg/mL; % activity relative to the negative control. As for the experimental part:
as §2
In general terms: Liver microsomes are a subcellular fraction often used to study metabolism.

Series [5] relates to Nrf2. The experiment in a line: Nrf2 functional cell-based assay (DisoveRx), luminescence. The conditions noted are these: relative to Compound 15.
The conditions of series [6]: background statement, cited from earlier work.
For series [7] the following is noted: background statement; cited from earlier work. This is another data set of the same source.
A further series has as its target T4, CYP 3A4 (Homo sapiens, UniProt P08684).
T4 construct: from tissue; host or cells: human liver microsomes
Description: Inhibition of CYP activity in human liver microsomes, 3A4. The series is classed as in vitro ADME. The conditions noted are these: 10 μM compound, human liver microsomes 0.25 mg/mL; % activity relative to the negative control. As for the experimental part:
as §2

The mark [8] stands for this setting: when administered into the body.

This is an account of results in US12234207B2, “Halo-(3-(phenylsulfonyl)prop-1-enyl)pyridine derivative and use thereof” (Cureverse Incorporated, priority 2018, dated 2025).

Molecules are shown by their SMILES. Several values for one entry are separate records, joined by “and”; a condition that tells them apart may be missing. Equal entries are not always repeated. A value given as a limit tells only on which side of the number the result lay.

T1 sequence (P11712 whole entry): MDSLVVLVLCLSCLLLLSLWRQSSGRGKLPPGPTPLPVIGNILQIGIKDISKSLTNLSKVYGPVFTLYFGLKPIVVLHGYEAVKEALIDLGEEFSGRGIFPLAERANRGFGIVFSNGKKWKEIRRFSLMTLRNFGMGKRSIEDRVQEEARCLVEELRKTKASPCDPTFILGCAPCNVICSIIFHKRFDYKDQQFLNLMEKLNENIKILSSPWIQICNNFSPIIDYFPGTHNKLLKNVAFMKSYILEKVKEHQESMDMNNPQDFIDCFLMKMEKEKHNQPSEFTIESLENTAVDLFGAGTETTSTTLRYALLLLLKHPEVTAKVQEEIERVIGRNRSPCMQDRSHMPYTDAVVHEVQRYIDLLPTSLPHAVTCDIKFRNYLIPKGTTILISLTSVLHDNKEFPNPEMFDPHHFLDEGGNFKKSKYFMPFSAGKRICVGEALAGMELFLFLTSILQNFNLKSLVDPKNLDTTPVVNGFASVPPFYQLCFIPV
T4 sequence (P08684 whole entry): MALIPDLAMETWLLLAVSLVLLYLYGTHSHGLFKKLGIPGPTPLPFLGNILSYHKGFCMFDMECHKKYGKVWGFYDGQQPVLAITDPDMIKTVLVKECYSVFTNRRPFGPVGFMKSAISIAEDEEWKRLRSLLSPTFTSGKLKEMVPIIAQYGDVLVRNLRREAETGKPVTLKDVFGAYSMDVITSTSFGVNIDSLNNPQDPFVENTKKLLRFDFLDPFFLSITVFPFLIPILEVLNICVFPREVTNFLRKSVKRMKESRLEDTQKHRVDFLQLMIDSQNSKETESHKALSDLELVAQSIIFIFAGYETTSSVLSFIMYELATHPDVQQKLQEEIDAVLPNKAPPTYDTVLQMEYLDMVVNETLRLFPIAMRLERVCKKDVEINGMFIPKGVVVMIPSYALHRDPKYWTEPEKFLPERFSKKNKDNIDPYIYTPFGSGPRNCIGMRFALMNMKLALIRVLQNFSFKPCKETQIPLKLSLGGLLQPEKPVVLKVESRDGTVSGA

In the case of `C[S+]([O-])CCCCN=C=S` (centres unmarked) [SFN (sulforaphane), 1-isothiocyanato-4-methylsulfinylbutane], the “Time until dissipated when administered into the body” value in series [1] was not above 1 h.
Consider `Cl.O=S(=O)(/C=C/c1ncccc1F)c1ccc(OCCCN2CCOCC2)cc1` [Compound 15, (E)-4-(3-(4-(2-(3-fluoropyridin-2-yl)vinylsulfonyl)phenoxy)propyl)morpholine hydrochloride], for which, in the series on Nrf2 [2], the “Amount of Nrf2 protein in the nucleus” value is on record as “promotes the activation of Nrf2 in a concentration-dependent manner”. Besides, in series [3], the “Vertical grid test: time to turn” value is listed as “reduced again to a level similar to that of the negative control group” and the “Vertical grid test: total time to climb down” value is “reduced again to a level similar to that of the negative control group”. The solubility (as a rule, the dissolved amount per volume that the medium holds) in “Solubility in water” is not below 10000 µg/mL. In addition, the “Tyrosine hydroxylase staining of corpus striatum and substantia nigra” value in the series with dopaminergic neurons is listed as “the staining became dark again”. Besides, in [4], the “Coat-hanger test score, average” value is recorded as not below 4 points. For the same molecule, in the series on GCLC, GCLM, and HO-1, the “Expression of Nrf2 and antioxidant enzymes GCLC, GCLM, and HO-1” value is given as “increased the expression of antioxidant enzymes through Nrf2 activation in a concentration-dependent manner”.
Turning to `COc1ccccc1S(=O)(=O)/C=C/c1ccccc1Cl` [VSC2, (E)-1-chloro-2-(2-(2-methoxyphenylsulfonyl)vinyl)benzene, reference compound], the “CYP 2C9 activity” value on CYP 2C9 was 100.0%; at CYP 2C9 (listed as Comparative Example 1), 100%. In addition, the “CYP 2C19 activity” value at CYP 2C19 turned out to be 16.8%. Also, the IC50 (usually the concentration needed to halve the response being measured) at hERG channel was 1000 nM and 1200 nM. Further, the “CYP 2D6 activity” value on CYP 2D6 was 54.9%. Besides, the solubility in the series “Solubility in water” is not above 10 µg/mL. In addition, in the series on Nrf2 [5], the “Effect of inducing Nrf2 activity as % of the level of Compound 15” value is given as “about 60%”. Further, the Cardiac toxicity entry in series [6] is listed as “cardiac toxicity”. Further, in series [6] (setting [8]), the Bioavailability result is on record as “low”. Besides, the Drug metabolic stability entry in series [6] (setting [8]) is listed as “low”. In addition, the “Solubility in water (in words)” value in series [7] is “low”. For the same molecule, the “CYP 3A4 activity” value at CYP 3A4 is 55.6%.
